Measurements as given in ChEMBL document CHEMBL1201862, “PubChem BioAssay data set” (2004).
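Values below derive from 48-hour exposures of cells grown in 96-well plates, with endpoints linearly interpolated between the two concentrations bracketing the appropriate inhibition level. The concentration for 50% growth inhibition is given as GI50.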 Calls of active or inactive are those of the source. Rule as the data show it: active = GI50 up to about 1.1 µM and inactive = higher.

Columns and labels:
Test in all cases: DTP human tumour cell line panel, 48 h
[1] = tested on: 786-0
[2] = tested on: ACHN
[3] = tested on: CAKI-1
[4] = tested on: CCRF-CEM
[5] = tested on: COLO 205
[6] = tested on: DMS-273
[7] = tested on: EKVX
[8] = tested on: IGROV-1
[9] = tested on: K562
[10] = tested on: KM-20L2
[11] = tested on: OVCAR-4
[12] = tested on: OVCAR-8
[13] = tested on: RXF 393
[14] = tested on: SR
[15] = tested on: SW-620
[16] = tested on: U-251
[17] = tested on: UO-31
[18] = tested on: MDA-MB-231
[19] = tested on: MDA-MB-435
[20] = tested on: MDA-N

Measured: GI50

NC(CCSCC(F)F)C(=O)O (stereo not drawn)
inactive: [1] > 100 µM | [2] > 100 µM | [3] > 100 µM | [4] > 100 µM | [5] > 100 µM | [6] > 100 µM | [7] > 100 µM | [8] > 100 µM | [9] > 100 µM | [10] > 100 µM | [11] > 100 µM | [12] > 100 µM | [13] > 100 µM | [14] > 100 µM | [15] > 100 µM | [16] > 100 µM | [17] > 100 µM

O=C(c1cc(O)ccc1O)c1ccccc1C(Cl)(Cl)Cl
inactive: [1] > 100 µM | [2] > 100 µM | [3] 93.1 µM | [4] 61.5 µM | [5] > 100 µM | [6] > 100 µM | [7] 75.5 µM | [8] > 100 µM | [9] 61.8 µM | [10] > 100 µM | [11] 68.5 µM | [12] 80.9 µM | [13] > 100 µM | [14] 71.8 µM | [15] > 100 µM | [16] > 100 µM | [17] 41.9 µM

O=C(O)CCSC(=O)Nc1ccccc1
inactive: [1] > 100 µM | [2] 97.9 µM | [3] > 100 µM | [4] > 100 µM | [5] > 100 µM | [6] > 100 µM | [7] > 100 µM | [8] 94.6 µM | [9] > 100 µM | [10] > 100 µM | [11] > 100 µM | [12] > 100 µM | [13] > 100 µM | [14] > 100 µM | [15] 92.9 µM | [16] > 100 µM | [17] > 100 µM

COc1cccc(NC(=O)CC(=O)N2N=C(N(CCC#N)c3ccc(Cl)cc3)CC2c2ccccc2)c1 (stereo not drawn)
inactive: [1] > 100 µM | [2] > 100 µM | [3] > 100 µM | [4] > 100 µM | [5] > 100 µM | [6] > 100 µM | [7] > 100 µM | [8] > 100 µM | [9] > 100 µM | [10] > 100 µM | [11] > 100 µM | [12] > 100 µM | [13] > 100 µM | [14] > 100 µM | [15] > 100 µM | [16] > 100 µM | [17] > 100 µM

O=C1NC(Cc2ccccc2)C(=O)N2CCCC12 (stereo not drawn)
inactive: [1] > 100 µM | [2] > 100 µM | [3] > 100 µM | [4] > 100 µM | [5] > 100 µM | [6] > 100 µM | [7] > 100 µM | [8] > 100 µM | [9] > 100 µM | [10] > 100 µM | [11] > 100 µM | [12] > 100 µM | [13] > 100 µM | [14] > 100 µM | [15] > 100 µM | [16] > 100 µM | [17] > 100 µM

N#CC(/C(=N\NC(N)=S)C(=O)NC1C2CC3CC(C2)CC1C3)c1ccc(Cl)cc1 (stereo not drawn)
inactive: [1] > 100 µM | [2] > 100 µM | [3] > 100 µM | [4] > 100 µM | [5] > 100 µM | [6] > 100 µM | [7] > 100 µM | [8] > 100 µM | [9] > 100 µM | [10] > 100 µM | [11] > 100 µM | [12] > 100 µM | [13] > 100 µM | [14] > 100 µM | [15] > 100 µM | [16] > 100 µM | [17] > 100 µM

Cc1cccc(C)c1NC(=O)C(=O)C1C(=O)NC(=O)NC1=O
inactive: [1] > 100 µM | [2] > 100 µM | [3] > 100 µM | [4] > 100 µM | [5] > 100 µM | [6] > 100 µM | [7] > 100 µM | [8] > 100 µM | [9] > 100 µM | [10] > 100 µM | [11] > 100 µM | [12] > 100 µM | [13] > 100 µM | [14] > 100 µM | [15] > 100 µM | [16] > 100 µM | [17] > 100 µM

COc1cc2c(cc1O)[C@H](Cc1ccc(Oc3cc(C[C@H]4c5cc(OC)c(OC)cc5CCN4C)ccc3OC)cc1)NCC2
inactive: [1] 12.4 µM | [2] 11.4 µM | [3] 4.08 µM | [4] 9.64 µM | [5] 17.9 µM | [6] 19.5 µM | [7] > 10 µM | [8] 15.2 µM | [9] 2.21 µM | [10] 10.1 µM | [11] 12.7 µM | [12] 14.5 µM | [13] 3.77 µM | [14] 7.5 µM | [15] 11.6 µM | [16] 12 µM | [17] 8.75 µM

CC(=O)/C(C)=N/NC(=O)c1ccccc1O
inactive: [1] > 10 µM | [2] > 10 µM | [3] > 10 µM | [4] 23 µM | [5] > 10 µM | [6] > 10 µM | [7] > 10 µM | [8] 75 µM | [9] 37 µM | [10] > 10 µM | [18] > 100 µM | [19] > 100 µM | [20] > 100 µM | [11] > 10 µM | [12] > 10 µM | [13] > 10 µM | [14] 41.6 µM | [15] > 10 µM | [16] > 10 µM | [17] > 10 µM

CN1OC2OC(=O)OC2[C@H]1[C@H]1O[C@H](c2ccccc2)OC1(C)c1cc(OC(=O)c2ccccc2)ccc1OC(=O)c1ccccc1 (stereo partly drawn)
inactive: [1] > 50 µM | [2] > 50 µM | [3] > 50 µM | [4] > 50 µM | [5] > 50 µM | [6] > 50 µM | [7] > 50 µM | [8] > 50 µM | [9] > 50 µM | [10] > 50 µM | [11] > 50 µM | [12] > 50 µM | [13] > 50 µM | [14] > 50 µM | [15] > 50 µM | [16] > 50 µM | [17] > 50 µM
